Measurements: ChEMBL document CHEMBL6182856, “Novel one-/two-photon excited carbazole/quinolinium photosensitizers manifest nanomolar and hypoxia-resistant tumor photodynamic therapy by accelerating apoptosis, ferroptosis, and autophagy” (Eur J Med Chem, 2025)
Activity calls are given as the source filed them. The calls are words filed in the database; no cut-off is given here.

Legend:
[1] = test system: A549; assay: Induction of autophagy in human A549 cells assessed as large circular vesicles engulfing small particles measured upon light irradiation by transmission electron microscopy; type: functional, cell-based
[2] = test system: A549; assay: Photosensitizing ability of the compound in human A549 cells assessed as increase in intracellular singlet oxygen generation by measuring increase in fluorescence intensity measured upon light irradiation under normoxia conditions by SOSG probe based fluorescence analysis relative to FLI in cells without irradiation; type: functional
[3] = Phototherapeutic index, ratio of IC50 for cytotoxicity against human A549 cells measured under hypoxia conditions to IC50 for phototoxicity against human A549 cells measured under hypoxia conditions and after two-photon excitation upon irradiation with light at 808 nm, 200 mW/cm2 for 10 mins; type: functional
[4] = Toxicity against mouse xenografted with human A549 cells assessed as changes in biochemical indicators administered intratumorally followed by exposure to light on day 0 and 7 and measured on day 15; conditions: in vivo, other, 360 h, route it(Intratumoral), time 15 day
[5] = Photosensitizing ability of the compound assessed as hydroxyl radical production upon irradiation by HPF probe based assay relative to KAKQ; type: functional
[6] = test system: A549; assay: Photosensitizing ability of the compound in human A549 cells assessed as increase in intracellular superoxide generation by measuring increase in fluorescence intensity measured upon light irradiation under hypoxia conditions by DHE probe based fluorescence analysis; type: functional, cell-based
[7] = Photosensitizing ability of the compound in methanol assessed as singlet oxygen production by measuring quantum yield measured upon irradiation by DPBF based assay; type: functional
[8] = Phototoxicity against human HT-29 cells assessed as inhibition of cell growth incubated for 24 hrs measured under normoxia conditions and after one-photon excitation upon irradiation with light at 520 nm, 200 mW/cm2 for 10 mins by MTT assay; type: functional, cell-based; conditions: HT-29, light or radiation study
[9] = test system: A549; assay: Induction of autophagy in human A549 cells assessed as increase in active membrane bound form, […] expression measured upon light irradiation by western blot analysis relative to control; type: functional
[10] = Phototoxicity against human A549 cells assessed as inhibition of cell growth at 1.56 to 400 nM incubated for 24 hrs measured under normoxia conditions and after one-photon excitation upon irradiation with light at 520 nm, 200 mW/cm2 for 10 mins by MTT assay relative to control; type: functional; conditions: dose 1.56-400 nM
[11] = test system: A549; assay: Induction of ROS generation in human A549 cells assessed as intracellular ROS level measured under normoxia conditions by DCFH-DA staining based fluorescence analysis; type: functional, cell-based
[12] = Photosensitizing ability of the compound assessed as superoxide radical production upon irradiation by DHE probe based assay relative to KAKQ; type: functional
[13] = test system: A549; assay: Induction of mitochondrial damage in human A549 cells assessed as decrease in red fluorescence intensity measured upon light irradiation by JC-1 staining based fluorescence analysis; type: functional, cell-based
[14] = test system: A549; assay: Cytotoxicity against human A549 cells assessed as inhibition of cell growth incubated for 24 hrs measured under hypoxia conditions by MTT assay; type: functional, cell-based; conditions: A549, 24 h
[15] = test system: A549; assay: Induction of mitochondrial damage in human A549 cells assessed as increase in ratio of green to red fluorescence intensity measured upon light irradiation by JC-1 staining based fluorescence analysis relative to control; type: functional
[16] = test system: A549; assay: Induction of ROS generation in human A549 cells assessed as intracellular singlet oxygen level measured under normoxia conditions by SOSG probe based fluorescence analysis; type: functional, cell-based
[17] = Phototoxicity against human A549 cells assessed as inhibition of cell growth incubated for 24 hrs measured under hypoxia conditions and after two-photon excitation upon irradiation with light at 808 nm, 200 mW/cm2 for 10 mins by MTT assay; type: functional, cell-based; conditions: A549, light or radiation study
[18] = test system: HT-29; assay: Cytotoxicity against human HT-29 cells assessed as inhibition of cell growth incubated for 24 hrs measured under normoxia conditions by MTT assay; type: functional, cell-based; conditions: HT-29, 24 h
[19] = test system: A549; assay: Induction of apoptosis in human A549 cells assessed as viable cells measured under dark conditions by AnnexinV-FITC/PI staining based flow cytometric analysis (reference value: 99.7%); type: functional
[20] = test system: A549; assay: Induction of apoptosis in human A549 cells measured upon light irradiation by AnnexinV-FITC/PI staining based flow cytometric analysis relative to RuB; type: functional
[21] = Photosensitizing ability of the compound assessed as hydroxyl radical production measured upon irradiation by electron spin resonance analysis; type: functional
[22] = test system: A549; assay: Induction of apoptosis in human A549 cells assessed as late apoptotic cells measured under dark conditions by AnnexinV-FITC/PI staining based flow cytometric analysis (reference value: 0.17%); type: functional
[23] = Photosensitizing ability of the compound in methanol assessed as singlet oxygen production by measuring quantum yield upon irradiation by DPBF based assay relative to KAKQ; type: functional
[24] = Phototherapeutic index, ratio of IC50 for cytotoxicity against human A549 cells measured under hypoxia conditions to IC50 for phototoxicity against human A549 cells measured under hypoxia conditions and after one-photon excitation upon irradiation with light at 520 nm, 200 mW/cm2 for 10 mins; type: functional
[25] = test system: A549; assay: Induction of ROS generation in human A549 cells assessed as intracellular superoxide level measured under normoxia conditions by DHE probe based fluorescence analysis; type: functional, cell-based
[26] = Phototoxicity against human A549 cells assessed as inhibition of cell growth incubated for 24 hrs measured under normoxia conditions and after two-photon excitation upon irradiation with light at 808 nm, 200 mW/cm2 for 10 mins by MTT assay; type: functional, cell-based; conditions: A549, light or radiation study
[27] = Phototherapeutic index, ratio of IC50 for cytotoxicity against human A549 cells measured under normoxia conditions to IC50 for phototoxicity against human A549 cells measured under normoxia conditions and after two-photon excitation upon irradiation with light at 808 nm, 200 mW/cm2 for 10 mins; type: functional
[28] = Toxicity against mouse xenografted with human A549 cells assessed as changes in hematological indicators administered intratumorally on day 0 and 7 and measured on day 15; conditions: in vivo, other, 360 h, route it(Intratumoral), time 15 day
[29] = test system: A549; assay: In vivo photodynamic therapy based antitumor activity against human A549 cells xenografted in mouse assessed as tumor growth inhibition administered intratumorally followed by exposure to light on day 0 and 7 and measured on day 15; type: functional; conditions: route it(Intratumoral); time 15 day
[30] = Photosensitizing ability of the compound in methanol assessed as singlet oxygen production by measuring quantum yield upon irradiation by DPBF based assay relative to KNKQ; type: functional
[31] = Photosensitizing ability of the compound assessed as superoxide radical production upon irradiation by DHE probe based assay relative to KNKQ; type: functional
[32] = Toxicity against mouse xenografted with human A549 cells assessed as changes in biochemical indicators administered intratumorally on day 0 and 7 and measured on day 15; conditions: in vivo, other, 360 h, route it(Intratumoral), time 15 day
[33] = test system: A549; assay: Induction of apoptosis in human A549 cells assessed as late apoptotic cells measured upon light irradiation by AnnexinV-FITC/PI staining based flow cytometric analysis (reference value: 0.15%); type: functional
[34] = Photosensitizing ability of the compound assessed as superoxide radical production measured upon irradiation by electron spin resonance analysis; type: functional
[35] = Photostability of the compound measured after 30 mins of light irradiation by UV absorption based analysis; type: physicochemical; conditions: 0.5 h
[36] = test system: A549; assay: Induction of ferroptosis in human A549 cells assessed as increase in lipid peroxidation by measuring decrease in GSH level measured upon irradiation relative to control; type: functional
[37] = test system: A549; assay: Induction of ferroptosis in human A549 cells assessed as increase in lipid peroxidation by measuring increase in MDA level measured upon irradiation relative to control; type: functional

- Stability [35]: Stable
SMILES: CCn1c2ccc(/C=C/c3cc[n+](C)c4ccccc34)cc2c2cc(N(c3ccccc3)c3ccccc3)ccc21.[I-]
- Activity [1]: Active
- fold change (FC) [2]: 4
- Ratio IC50 [3]: 10
- Activity [4]: Non-toxic
- fold change (FC) [5]: 3
- Activity [6]: Active
- Activity [7]: 0.38
- IC50 [8]: 0.029 µM
- fold change (FC) [9]: 2
- inhibition (INH) [10]: 24.4%
- Activity [11]: inactive
- fold change (FC) [12]: 8
- Activity [13]: Active
- IC50 [14]: 1.97 µM
- fold change (FC) [15]: ~100
- Activity [16]: inactive
- IC50 [17]: 0.2 µM
- IC50 [18]: 1.48 µM
- Activity [19]: 50.4%
- fold change (FC) [20]: 14
- Activity [21]: Active
- Activity [22]: 30.7%
- fold change (FC) [23]: 3
- Ratio IC50 [24]: 46
- Activity [25]: inactive
- IC50 [26]: 0.13 µM
- Ratio IC50 [27]: 11
- Activity [28]: Non-toxic
- TGI [29]: 90.7%
- fold change (FC) [30]: 3
- fold change (FC) [31]: 8
- Activity [32]: Non-toxic
- Activity [33]: 87.8%
- Activity [34]: Active
- fold change (FC) [36]: 100
- fold change (FC) [37]: 10
